Results published in ChEMBL document CHEMBL2074449, “P-glycoprotein mediates profound resistance to bisantrene” (Oncol Res, 1994).

Biological target: ATP-dependent translocase ABCB1 (Homo sapiens, UniProt P08183)
Test: TP_TRANSPORTER: efflux in S1-B1-20 cells
Format: functional, cell-based

Chain of ATP-dependent translocase ABCB1 (P08183 whole entry): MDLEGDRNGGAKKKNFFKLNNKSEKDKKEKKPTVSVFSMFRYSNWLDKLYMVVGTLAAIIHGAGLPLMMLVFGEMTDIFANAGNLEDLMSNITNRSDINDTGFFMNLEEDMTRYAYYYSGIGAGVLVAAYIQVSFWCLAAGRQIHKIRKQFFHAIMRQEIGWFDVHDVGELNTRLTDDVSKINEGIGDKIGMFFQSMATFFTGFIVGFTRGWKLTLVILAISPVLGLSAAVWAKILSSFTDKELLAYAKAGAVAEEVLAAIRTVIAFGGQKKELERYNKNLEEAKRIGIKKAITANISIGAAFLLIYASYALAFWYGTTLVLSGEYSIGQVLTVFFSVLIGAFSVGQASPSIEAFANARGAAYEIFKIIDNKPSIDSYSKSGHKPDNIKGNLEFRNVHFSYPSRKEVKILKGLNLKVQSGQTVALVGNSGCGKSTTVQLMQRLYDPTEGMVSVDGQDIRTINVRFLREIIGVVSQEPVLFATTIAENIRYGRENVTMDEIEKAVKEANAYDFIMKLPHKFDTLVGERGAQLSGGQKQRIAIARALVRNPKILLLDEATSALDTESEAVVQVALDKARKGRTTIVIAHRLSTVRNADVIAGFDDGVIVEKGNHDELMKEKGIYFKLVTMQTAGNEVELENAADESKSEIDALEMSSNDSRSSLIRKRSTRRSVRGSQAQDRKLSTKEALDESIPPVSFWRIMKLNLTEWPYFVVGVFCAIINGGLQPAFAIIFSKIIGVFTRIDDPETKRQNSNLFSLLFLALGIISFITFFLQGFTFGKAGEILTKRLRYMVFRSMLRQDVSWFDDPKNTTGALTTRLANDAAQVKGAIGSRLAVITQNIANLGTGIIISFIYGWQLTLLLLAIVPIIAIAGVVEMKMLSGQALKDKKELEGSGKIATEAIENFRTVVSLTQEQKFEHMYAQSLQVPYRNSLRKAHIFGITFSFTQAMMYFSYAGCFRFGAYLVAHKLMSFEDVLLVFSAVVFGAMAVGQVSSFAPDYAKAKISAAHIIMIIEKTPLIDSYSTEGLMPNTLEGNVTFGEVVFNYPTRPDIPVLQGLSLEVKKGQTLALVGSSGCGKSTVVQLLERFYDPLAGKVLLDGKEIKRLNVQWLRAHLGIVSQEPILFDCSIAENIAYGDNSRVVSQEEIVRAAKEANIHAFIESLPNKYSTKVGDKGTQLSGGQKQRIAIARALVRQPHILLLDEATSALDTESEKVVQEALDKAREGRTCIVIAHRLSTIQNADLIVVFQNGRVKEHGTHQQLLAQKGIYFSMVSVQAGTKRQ

## C(=N\NC1=NCCN1)/c1c2ccccc2c(/C=N/NC2=NCCN2)c2ccccc12 [BISANTRENE]
  Activity: substrate [+]
